Patent EP4745135A1 (Gluetacs Therapeutics (Shanghai) Co., Ltd., priority 2023, dated 2025)

Assays:
GSPT1 = assay: Western blot, degradation of substrate protein in hPBMCs; assay type: cell-based, Human
IKZF3 = target: T1, IKZF3 (Homo sapiens, UniProt Q96SW2+Q9UKT9); assay: as above; assay type: cell-based
T1 construct: effects of the compounds of the present disclosure on the expression of target proteins in cells; endogenous in cells; host or cells: human PBMCs (Milecell Biotechnologies)

IKZF1 = target: T2, IKZF1 (Homo sapiens, UniProt Q13422+Q96SW2); assay: as above; assay type: cell-based
T2 construct: effects of the compounds of the present disclosure on the expression of target proteins in cells; endogenous in cells; host or cells: human PBMCs (Milecell Biotechnologies)

CK1α = target: T3, CK1α (Homo sapiens, UniProt P48729+Q96SW2); assay: as above; assay type: cell-based
T3 construct: effects of the compounds of the present disclosure on the expression of target proteins in cells; endogenous in cells; host or cells: human PBMCs (Milecell Biotechnologies)

IKZF2 = target: T4, IKZF2 (Homo sapiens, UniProt Q96SW2+Q9UKS7); assay: as above; assay type: cell-based
T4 construct: effects of the compounds of the present disclosure on the expression of target proteins in cells; endogenous in cells; host or cells: human PBMCs (Milecell Biotechnologies)

WEE1 = target: T5, WEE1 (Homo sapiens, UniProt P30291+Q96SW2); assay: as above; assay type: cell-based
T5 construct: effects of the compounds of the present disclosure on the expression of target proteins in cells; endogenous in cells; host or cells: human PBMCs (Milecell Biotechnologies)

[1] = target: T6, human Cereblon WT GST-tagged protein (Homo sapiens, UniProt Q96SW2); assay: CRBN-binding affinity, HTRF (CEREBLON BINDING kit); conditions: for inhibition at 0.5 µM: read-out: Inhibition Rate at 0.5 µM (%); for inhibition at 2 µM: read-out: Inhibition Rate at 2 µM (%)
T6 construct: purchased CISBIO 64BDCRBNPEH

[2] = 24 hours treatment, compounds at 50 nM and 500 nM (concentration behind the class not stated)
[3] = Western blot, 24 hours of compound treatment, compounds tested at 50 nM and 500 nM (concentration for the table not stated)

T1 sequence (Q9UKT9 whole entry): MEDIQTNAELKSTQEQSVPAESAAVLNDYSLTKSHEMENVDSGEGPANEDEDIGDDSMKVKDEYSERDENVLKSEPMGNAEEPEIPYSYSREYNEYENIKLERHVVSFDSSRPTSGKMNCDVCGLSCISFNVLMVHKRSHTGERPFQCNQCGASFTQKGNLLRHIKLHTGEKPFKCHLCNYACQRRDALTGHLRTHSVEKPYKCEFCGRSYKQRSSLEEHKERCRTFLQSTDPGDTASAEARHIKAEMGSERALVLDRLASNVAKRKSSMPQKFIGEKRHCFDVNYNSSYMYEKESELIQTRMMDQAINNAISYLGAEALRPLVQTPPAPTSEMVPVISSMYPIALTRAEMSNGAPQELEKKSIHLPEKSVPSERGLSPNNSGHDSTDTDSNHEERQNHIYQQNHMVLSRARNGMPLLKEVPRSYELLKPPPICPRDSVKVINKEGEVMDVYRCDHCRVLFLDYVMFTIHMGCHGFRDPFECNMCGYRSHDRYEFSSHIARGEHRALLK
T1 sequence (Q96SW2 whole entry): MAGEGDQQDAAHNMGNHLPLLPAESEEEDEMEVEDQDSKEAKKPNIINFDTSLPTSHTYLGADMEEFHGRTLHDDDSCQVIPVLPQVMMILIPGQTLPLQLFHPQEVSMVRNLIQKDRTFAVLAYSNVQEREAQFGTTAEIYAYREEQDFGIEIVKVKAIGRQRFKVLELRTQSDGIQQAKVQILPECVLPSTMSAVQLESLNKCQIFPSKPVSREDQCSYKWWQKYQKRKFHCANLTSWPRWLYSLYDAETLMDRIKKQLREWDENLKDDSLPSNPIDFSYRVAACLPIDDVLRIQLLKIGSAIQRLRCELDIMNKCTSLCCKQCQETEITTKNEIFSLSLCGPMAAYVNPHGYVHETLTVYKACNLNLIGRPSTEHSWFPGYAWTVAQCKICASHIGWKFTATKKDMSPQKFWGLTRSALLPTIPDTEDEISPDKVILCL
T1 sequence (Q16531 whole entry partner): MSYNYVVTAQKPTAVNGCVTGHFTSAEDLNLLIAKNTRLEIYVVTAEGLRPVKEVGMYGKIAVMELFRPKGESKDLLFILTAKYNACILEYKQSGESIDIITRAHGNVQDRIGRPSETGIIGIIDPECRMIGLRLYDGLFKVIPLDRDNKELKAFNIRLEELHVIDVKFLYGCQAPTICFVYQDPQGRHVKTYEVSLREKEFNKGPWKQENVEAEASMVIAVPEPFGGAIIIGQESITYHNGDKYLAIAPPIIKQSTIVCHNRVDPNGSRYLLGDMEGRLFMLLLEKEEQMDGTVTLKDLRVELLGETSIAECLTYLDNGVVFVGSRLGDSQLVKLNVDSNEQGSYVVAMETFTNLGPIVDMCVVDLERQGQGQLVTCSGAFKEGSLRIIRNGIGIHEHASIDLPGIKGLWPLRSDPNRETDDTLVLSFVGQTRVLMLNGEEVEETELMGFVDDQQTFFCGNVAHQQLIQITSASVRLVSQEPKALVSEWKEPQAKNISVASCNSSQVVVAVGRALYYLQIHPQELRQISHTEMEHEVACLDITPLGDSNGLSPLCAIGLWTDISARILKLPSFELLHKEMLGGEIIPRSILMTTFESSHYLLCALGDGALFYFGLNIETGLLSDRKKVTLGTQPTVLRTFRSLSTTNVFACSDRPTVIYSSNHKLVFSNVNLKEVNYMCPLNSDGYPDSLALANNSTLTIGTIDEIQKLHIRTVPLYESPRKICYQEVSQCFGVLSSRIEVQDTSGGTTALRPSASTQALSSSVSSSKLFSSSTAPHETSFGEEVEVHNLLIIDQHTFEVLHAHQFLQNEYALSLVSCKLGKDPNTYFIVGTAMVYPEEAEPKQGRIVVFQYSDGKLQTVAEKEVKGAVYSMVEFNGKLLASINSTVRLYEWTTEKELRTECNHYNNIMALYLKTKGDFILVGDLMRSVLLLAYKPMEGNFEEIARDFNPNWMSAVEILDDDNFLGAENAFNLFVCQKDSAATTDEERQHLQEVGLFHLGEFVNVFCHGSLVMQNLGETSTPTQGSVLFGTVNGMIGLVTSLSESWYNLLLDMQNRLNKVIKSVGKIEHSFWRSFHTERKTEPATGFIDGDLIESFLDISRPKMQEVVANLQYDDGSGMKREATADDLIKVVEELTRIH
T2 sequence (Q13422 whole entry): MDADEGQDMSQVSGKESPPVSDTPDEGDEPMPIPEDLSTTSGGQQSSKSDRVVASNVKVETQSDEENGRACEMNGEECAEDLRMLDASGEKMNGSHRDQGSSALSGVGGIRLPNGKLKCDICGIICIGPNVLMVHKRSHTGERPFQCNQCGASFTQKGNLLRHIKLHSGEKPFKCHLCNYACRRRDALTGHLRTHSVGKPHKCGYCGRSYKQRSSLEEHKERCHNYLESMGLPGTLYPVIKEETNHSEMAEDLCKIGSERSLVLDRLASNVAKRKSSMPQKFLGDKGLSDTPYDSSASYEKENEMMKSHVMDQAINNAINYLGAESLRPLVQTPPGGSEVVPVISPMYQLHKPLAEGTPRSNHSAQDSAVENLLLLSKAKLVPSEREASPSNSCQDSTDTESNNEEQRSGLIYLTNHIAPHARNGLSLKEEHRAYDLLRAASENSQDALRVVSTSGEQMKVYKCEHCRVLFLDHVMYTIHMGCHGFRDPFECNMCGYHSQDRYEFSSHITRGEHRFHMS
T2 sequence (Q96SW2 whole entry): as the sequence (Q96SW2 whole entry) above
T2 sequence (Q16531 whole entry partner): as the sequence (Q16531 whole entry partner) above
T5 sequence (P30291 whole entry): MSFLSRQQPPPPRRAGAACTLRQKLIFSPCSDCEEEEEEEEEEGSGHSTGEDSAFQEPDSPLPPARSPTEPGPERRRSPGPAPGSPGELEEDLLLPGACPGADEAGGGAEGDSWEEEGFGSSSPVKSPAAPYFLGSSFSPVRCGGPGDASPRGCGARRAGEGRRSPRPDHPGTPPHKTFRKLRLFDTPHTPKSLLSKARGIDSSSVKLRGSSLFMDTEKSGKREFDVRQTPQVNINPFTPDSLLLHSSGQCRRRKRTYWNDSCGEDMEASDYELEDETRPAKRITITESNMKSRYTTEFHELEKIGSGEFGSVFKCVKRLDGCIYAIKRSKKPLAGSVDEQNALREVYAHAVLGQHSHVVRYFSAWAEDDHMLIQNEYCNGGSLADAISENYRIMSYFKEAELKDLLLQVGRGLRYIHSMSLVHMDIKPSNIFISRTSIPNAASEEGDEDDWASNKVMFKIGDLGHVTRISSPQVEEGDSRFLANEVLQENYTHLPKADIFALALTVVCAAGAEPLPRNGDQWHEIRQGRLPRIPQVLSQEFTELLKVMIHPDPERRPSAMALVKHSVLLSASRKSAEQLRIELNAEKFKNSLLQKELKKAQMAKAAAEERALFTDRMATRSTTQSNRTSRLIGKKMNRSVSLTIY
T5 sequence (Q96SW2 whole entry): as the sequence (Q96SW2 whole entry) above
T5 sequence (Q16531 whole entry partner): as the sequence (Q16531 whole entry partner) above
T4 sequence (Q9UKS7 whole entry): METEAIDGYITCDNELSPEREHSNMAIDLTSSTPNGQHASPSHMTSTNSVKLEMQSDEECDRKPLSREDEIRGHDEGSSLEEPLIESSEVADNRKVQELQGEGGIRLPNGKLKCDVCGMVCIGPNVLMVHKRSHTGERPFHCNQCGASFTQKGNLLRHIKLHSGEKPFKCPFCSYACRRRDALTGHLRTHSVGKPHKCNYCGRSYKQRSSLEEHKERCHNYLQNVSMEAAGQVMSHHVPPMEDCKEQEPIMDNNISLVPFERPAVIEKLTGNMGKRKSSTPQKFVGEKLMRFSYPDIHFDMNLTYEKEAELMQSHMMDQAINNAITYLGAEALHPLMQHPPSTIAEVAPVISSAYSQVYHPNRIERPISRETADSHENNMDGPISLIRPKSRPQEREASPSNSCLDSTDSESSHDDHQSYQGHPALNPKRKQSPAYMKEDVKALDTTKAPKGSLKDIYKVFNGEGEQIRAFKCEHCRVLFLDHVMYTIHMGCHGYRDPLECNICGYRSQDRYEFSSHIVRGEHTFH
T4 sequence (Q96SW2 whole entry): as the sequence (Q96SW2 whole entry) above
T4 sequence (Q16531 whole entry partner): as the sequence (Q16531 whole entry partner) above
T3 sequence (P48729 whole entry): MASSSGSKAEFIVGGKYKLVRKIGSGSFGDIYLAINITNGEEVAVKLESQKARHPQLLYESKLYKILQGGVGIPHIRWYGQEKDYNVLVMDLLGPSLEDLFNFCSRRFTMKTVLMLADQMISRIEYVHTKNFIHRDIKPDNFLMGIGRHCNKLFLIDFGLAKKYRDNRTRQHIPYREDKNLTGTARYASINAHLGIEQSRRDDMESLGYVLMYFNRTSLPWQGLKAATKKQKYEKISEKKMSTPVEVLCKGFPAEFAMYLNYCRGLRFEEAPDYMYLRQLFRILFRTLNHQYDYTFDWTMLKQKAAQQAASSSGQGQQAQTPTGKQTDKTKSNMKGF
T3 sequence (Q96SW2 whole entry): as the sequence (Q96SW2 whole entry) above
T3 sequence (Q16531 whole entry partner): as the sequence (Q16531 whole entry partner) above
T6 sequence (Q96SW2 whole entry): as the sequence (Q96SW2 whole entry) above

| SMILES | GSPT1 substrate protein remaining % (GSPT1; [2]) | IKZF3 substrate protein remaining % (IKZF3; [2]) | IKZF 1 substrate protein remaining % (IKZF1; [2]) | CK1α substrate protein remaining % (CK1α; [2]) | IKZF2 substrate protein remaining % (IKZF2; [2]) | Wee1 substrate protein remaining % (WEE1; [2]) | inhibition at 0.5 µM [1] [%] | inhibition at 2 µM [1] [%] | GSPT1 substrate protein remaining % (GSPT1; [3]) | IKZF3 substrate protein remaining % (IKZF3; [3]) | IKZF 1 substrate protein remaining % (IKZF1; [3]) | CK1α substrate protein remaining % (CK1α; [3]) | IKZF2 substrate protein remaining % (IKZF2; [3]) | Wee1 substrate protein remaining % (WEE1; [3]) |
| --- | --- | --- | --- | --- | --- | --- | --- | --- | --- | --- | --- | --- | --- | --- |
| Cc1cc2c(N3CCN(Cc4cccc5c4CN(C4CCC(=O)NC4=O)C5=S)CC3)ncnc2s1 (stereo not shown) [GT-08914, 3-(4-((4-(6-methylthieno[2,3-d]pyrimidin-4-yl)piperazin-1-yl)methyl)-1-thioxoisoindolin-2-yl)piperidine-2,6-dione] | B (80%< substrate protein remaining %≤ 100%) | B (80%< substrate protein remaining %≤ 100%) | B (80%< substrate protein remaining %≤ 100%) | B (80%< substrate protein remaining %≤ 100%) | B (80%< substrate protein remaining %≤ 100%) | A (0% ≤ substrate protein remaining % ≤ 80%) | 60 to 80 | 80 to 100 |  |  |  |  |  |  |
| Cc1nc(C2=CCN(Cc3cccc4c3CN(C3CCC(=O)NC3=O)C4=S)CC2)c2c(-c3ccccc3)csc2n1 (stereo not shown) [GT-08958, 3-(4-((4-(2-methyl-5-phenylthieno[2,3-d]pyrimidin-4-yl)-3,6-dihydropyridin-1(2H)-yl)methyl)-1-thioxoisoindolin-2-yl)piperidine-2,6-dione] | B (80%< substrate protein remaining %≤ 100%) | B (80%< substrate protein remaining %≤ 100%) | B (80%< substrate protein remaining %≤ 100%) | B (80%< substrate protein remaining %≤ 100%) | B (80%< substrate protein remaining %≤ 100%) | A (0% ≤ substrate protein remaining % ≤ 80%) | 60 to 80 | 80 to 100 |  |  |  |  |  |  |
| CC1(C)CCC(CN2CC3CCC(C2)N3Cc2ccc3c(c2)CN(C2CCC(=O)NC2=O)C3=S)=C(c2ccc(Cl)cc2)C1 (stereo not shown) [GT-08163, 3-(5-((3-((4'-chloro-5,5-dimethyl-3,4,5,6-tetrahydro-[1,1'-biphenyl]-2-yl)methyl)-3,8-diazabicyclo[3.2.1]octan-8-yl)methyl)-1-thioxoisoindolin-2-yl)piperidine-2,6-dione] | A (0% ≤ substrate protein remaining % ≤ 80%) | B (80%< substrate protein remaining %≤ 100%) | A (0% ≤ substrate protein remaining % ≤ 80%) | B (80%< substrate protein remaining %≤ 100%) | B (80%< substrate protein remaining %≤ 100%) | A (0% ≤ substrate protein remaining % ≤ 80%) | 53 to 60 | 60 to 80 |  |  |  |  |  |  |
| O=C1CCC(N2Cc3cc(CN4CCN(c5ncccc5Cl)CC4)ccc3C2=S)C(=O)N1 (stereo not shown) [GT-09219, 3-(5-((4-(3-chloropyridin-2-yl)piperazin-1-yl)methyl)-1-thioxoisoindolin-2-yl)piperidine-2,6-dione] |  |  |  |  |  |  | 60 to 80 | 80 to 100 | A (0% ≤ substrate protein remaining % ≤ 80%) | B (80%< substrate protein remaining %≤ 100%) | B (80%< substrate protein remaining %≤ 100%) | B (80%< substrate protein remaining %≤ 100%) | A (0% ≤ substrate protein remaining % ≤ 80%) | B (80%< substrate protein remaining %≤ 100%) |
| O=C1CCC(N2Cc3c(CN4CCN(c5ccncc5Br)CC4)cccc3C2=S)C(=O)N1 (stereo not shown) [GT-08729, 3-(4-((4-(3-bromopyridin-4-yl)piperazin-1-yl)methyl)-1-thioxoisoindolin-2-yl)piperidine-2,6-dione] |  |  |  |  |  |  | 60 to 80 | 80 to 100 | B (80%< substrate protein remaining %≤ 100%) | B (80%< substrate protein remaining %≤ 100%) | B (80%< substrate protein remaining %≤ 100%) | B (80%< substrate protein remaining %≤ 100%) | B (80%< substrate protein remaining %≤ 100%) | A (0% ≤ substrate protein remaining % ≤ 80%) |
| O=C1CCC(N2Cc3c(CN4CCN(c5c(F)cncc5Cl)CC4)cccc3C2=S)C(=O)N1 (stereo not shown) [GT-08802, 3-(4-((4-(3-chloro-5-fluoropyridin-4-yl)piperazin-1-yl)methyl)-1-thioxoisoindolin-2-yl)piperidine-2,6-dione] |  |  |  |  |  |  | 53 to 60 | 80 to 100 | B (80%< substrate protein remaining %≤ 100%) | B (80%< substrate protein remaining %≤ 100%) | B (80%< substrate protein remaining %≤ 100%) | B (80%< substrate protein remaining %≤ 100%) | B (80%< substrate protein remaining %≤ 100%) | A (0% ≤ substrate protein remaining % ≤ 80%) |
| CC1(C)CCC(CN2C3CCC2CN(Cc2ccc4c(c2)CN(C2CCC(=O)NC2=O)C4=S)C3)=C(c2ccc(Cl)cc2)C1 (stereo not shown) [GT-08162, 3-(5-((8-((4'-chloro-5,5-dimethyl-3,4,5,6-tetrahydro-[1,1'-biphenyl]-2-yl)methyl)-3,8-diazabicyclo[3.2.1]octan-3-yl)methyl)-1-thioxoisoindolin-2-yl)piperidine-2,6-dione] | B (80%< substrate protein remaining %≤ 100%) | B (80%< substrate protein remaining %≤ 100%) | B (80%< substrate protein remaining %≤ 100%) | B (80%< substrate protein remaining %≤ 100%) | B (80%< substrate protein remaining %≤ 100%) | A (0% ≤ substrate protein remaining % ≤ 80%) | 30 to 40 | 60 to 80 |  |  |  |  |  |  |
| O=C1CCC(N2Cc3c(CN4CCN(c5ncnc(Cl)c5Cl)CC4)cccc3C2=S)C(=O)N1 (stereo not shown) [GT-08814, 3-(4-((4-(5,6-dichloropyrimidin-4-yl)piperazin-1-yl)methyl)-1-thioxoisoindolin-2-yl)piperidine-2,6-dione] |  |  |  |  |  |  | 60 to 80 | 80 to 100 | B (80%< substrate protein remaining %≤ 100%) | B (80%< substrate protein remaining %≤ 100%) | B (80%< substrate protein remaining %≤ 100%) | B (80%< substrate protein remaining %≤ 100%) | A (0% ≤ substrate protein remaining % ≤ 80%) | B (80%< substrate protein remaining %≤ 100%) |
| Cc1nc(C2CCN(Cc3cccc4c3CN(C3CCC(=O)NC3=O)C4=S)CC2)c2c3c(sc2n1)CCCC3 (stereo not shown) [GT-08933, 3-(4-((4-(2-methyl-5,6,7,8-tetrahydrobenzo[4,5]thieno[2,3-d]pyrimidin-4-yl)piperidin-1-yl)methyl)-1-thioxoisoindolin-2-yl)piperidine-2,6-dione] | A (0% ≤ substrate protein remaining % ≤ 80%) | B (80%< substrate protein remaining %≤ 100%) | A (0% ≤ substrate protein remaining % ≤ 80%) | B (80%< substrate protein remaining %≤ 100%) | B (80%< substrate protein remaining %≤ 100%) | A (0% ≤ substrate protein remaining % ≤ 80%) | 53 to 60 | 60 to 80 |  |  |  |  |  |  |
| O=C1CCC(N2Cc3cc(CN4CCC(c5ccnc6cc(F)ccc56)CC4)ccc3C2=S)C(=O)N1 (stereo not shown) [GT-09278, 3-(5-((4-(7-fluoroquinolin-4-yl)piperidin-1-yl)methyl)-1-thioxoisoindolin-2-yl)piperidine-2,6-dione] | B (80%< substrate protein remaining %≤ 100%) | A (0% ≤ substrate protein remaining % ≤ 80%) | A (0% ≤ substrate protein remaining % ≤ 80%) | B (80%< substrate protein remaining %≤ 100%) | B (80%< substrate protein remaining %≤ 100%) | A (0% ≤ substrate protein remaining % ≤ 80%) | 30 to 40 | 60 to 80 |  |  |  |  |  |  |
| O=C1CCC(N2Cc3cc(CN4CCN(c5ncccn5)CC4)ccc3C2=S)C(=O)N1 (stereo not shown) [GT-09252, 3-(5-((4-(pyrimidin-2-yl)piperazin-1-yl)methyl)-1-thioxoisoindolin-2-yl)piperidine-2,6-dione] | B (80%< substrate protein remaining %≤ 100%) | B (80%< substrate protein remaining %≤ 100%) | B (80%< substrate protein remaining %≤ 100%) | B (80%< substrate protein remaining %≤ 100%) | A (0% ≤ substrate protein remaining % ≤ 80%) | B (80%< substrate protein remaining %≤ 100%) | 60 to 80 | 80 to 100 |  |  |  |  |  |  |
